{
  "source": "paper PMC9403987",
  "about": "(Frontiers in Oncology, 2022)",
  "key": {"Colon-26": {"test_system": "Colon-26", "assay": "Cell proliferation assay", "assay_type": "cell-based, Mus musculus", "conditions": "Colon-26, colorectal carcinoma, 72 hours", "experimental": "(§1) To quantify cell proliferation, either the nuclei of live cells were counted following staining with 4’,6-diamidino-2-phenylindole (DAPI; Sigma-Aldrich, Burlington, MA, USA), or metabolically active cells were detected using a CellTiter-Glo assay (Promega Corporation, Madison, WI, USA). Cells from a range of human and mammalian tumor cell lines (American Type Culture Collection, Manassas, VA, USA) were seeded at 4000 cells per well in 100 μL of culture medium in a 96-well plate and incubated overnight at 37°C with 5% CO2. […] In the DAPI staining method, cells were washed using 1× phosphate-buffered saline (PBS; Gibco Thermo Fisher Scientific, Waltham, MA, USA), fixed with 4% formaldehyde, permeabilized with 0.2% Triton X-100 (Sigma-Aldrich), washed again, and stained with 1 μg/mL DAPI to visualize cell nuclei. Cells were washed with 1× PBS three times, and 100 μL 1× PBS was added to each well. Plates were scanned using an IN Cell Analyzer 2200 (GE Healthcare Life Sciences, Chicago, IL, USA) and the number of cells per well was recorded. In the CellTiter-Glo assay, 60 μL of CellTiter-Glo luminescent solution was added to each well after incubation with the test compounds, and the assay plate was scanned using a Tecan Infinite M1000 PRO microplate reader (Tecan Group AG, Männedorf, Switzerland) to record luminescent signals."}, "H22": {"test_system": "H22", "assay": "Cell proliferation assay", "assay_type": "cell-based, Mus musculus", "conditions": "H22, liver, hepatocellular carcinoma, 72 hours", "experimental": "as §1"}, "Hepa1-6": {"test_system": "Hepa1-6", "assay": "Cell proliferation assay", "assay_type": "cell-based, Mus musculus", "conditions": "Hepa1-6, liver, hepatocellular carcinoma, 72 hours", "experimental": "as §1"}, "Glioma 261": {"test_system": "Glioma 261", "assay": "Cell proliferation assay", "assay_type": "cell-based, Mus musculus", "conditions": "Glioma 261, brain, murine glioma, 72 hours", "experimental": "as §1"}, "4T1": {"test_system": "4T1", "assay": "Cell proliferation assay", "assay_type": "cell-based, Mus musculus", "conditions": "4T1, breast carcinoma, 72 hours", "experimental": "as §1"}, "BNL CL.2": {"test_system": "BNL CL.2", "assay": "Cell proliferation assay", "assay_type": "cell-based, Mus musculus", "conditions": "BNL CL.2, liver, normal, 72 hours", "experimental": "as §1"}, "MCF-7 tumor cells": {"test_system": "MCF-7 tumor cells", "assay": "Orthotopic MCF-7 breast cancer xenograft", "assay_type": "in vivo, NOD/SCID mice", "experimental": "(§2) The efficacy of GLR2007 was evaluated in human GBM and breast cancer orthotopic cell-line-derived xenografts in NOD/SCID mice (Shanghai Lingchang Biotechnology Co. Ltd, Shanghai, China) and BALB/c nude mice (Shanghai Sino-British SIPPR/BK Laboratory Animal Co. Ltd, Shanghai, China), and human lung, colorectal, and liver cancer subcutaneous cell-line-derived xenografts in BALB/c nude mice (Nanjing University National Resource Center, Nanjing, China, or Beijing Anikeeper Biotech Co., Beijing, China). Mice were maintained in humidity- and temperature-controlled conditions with food and water available ad libitum.\nIn two breast cancer orthotopic xenograft models, female NOD/SCID mice were subcutaneously implanted with an estrogen pellet (17β-estradiol; Innovative Research of America, Sarasota, FL, USA) one day before tumor inoculation. Mice were inoculated at 6–7 weeks old with 2×10^7 MCF-7 tumor cells plus Matrigel in a 1:1 ratio in PBS at a mammary fat pad or in the right flank. Randomization was performed when the mean tumor volume reached 135–138 mm^3."}, "NCI-H1975": {"test_system": "NCI-H1975", "assay": "Subcutaneous NCI-H1975 non-small cell lung cancer xenograft", "assay_type": "in vivo, BALB/c nude mice", "conditions": "22 days, measured day 16", "experimental": "as §2, with “libitum. For subcutaneous models, female BALB/c nude mice were inoculated at 4–8 weeks old with 3×10^6–1×10^7 tumor cells (see Table 1 for xenograft model cell types) in the right flank for tumor development. Randomization was performed when the mean tumor volume reached 118–171 mm^3.” for “libitum.”"}, "PC-9": {"test_system": "PC-9", "assay": "Cell proliferation assay", "assay_type": "cell-based, Homo sapiens", "conditions": "PC-9, lung carcinoma, 72 hours", "experimental": "as §1"}, "SNU-739": {"test_system": "SNU-739", "assay": "Cell proliferation assay", "assay_type": "cell-based, Homo sapiens", "conditions": "SNU-739, liver, hepatocellular carcinoma, 72 hours", "experimental": "as §1"}, "SK-MES-1": {"test_system": "SK-MES-1", "assay": "Cell proliferation assay", "assay_type": "cell-based, Homo sapiens", "conditions": "SK-MES-1, lung carcinoma, 72 hours", "experimental": "as §1"}, "Du4475": {"test_system": "Du4475", "assay": "Cell proliferation assay", "assay_type": "cell-based, Homo sapiens", "conditions": "Du4475, breast carcinoma, 72 hours", "experimental": "as §1"}, "T98G": {"test_system": "T98G", "assay": "Cell proliferation assay", "assay_type": "cell-based, Homo sapiens", "conditions": "brain, glioblastoma, 72 hours", "experimental": "as §1"}, "BN2289": {"test_system": "BN2289", "assay": "Subcutaneous BN2289 glioblastoma xenograft", "assay_type": "in vivo, BALB/c nude mice", "conditions": "28 days, measured day 21", "experimental": "as §2, with “libitum. For subcutaneous models, female BALB/c nude mice were inoculated at 4–8 weeks old with 3×10^6–1×10^7 tumor cells (see Table 1 for xenograft model cell types) in the right flank for tumor development. Randomization was performed when the mean tumor volume reached 118–171 mm^3.” for “libitum.”"}, "U87-luc tumor cells": {"test_system": "U87-luc tumor cells", "assay": "Orthotopic U87-luc glioblastoma xenograft", "assay_type": "in vivo, BALB/c nude mice", "conditions": "for TGI (%) / Increase in median survival time (%): 42 days; for TGI (%): measured day 21, bioluminescence; for Increase in median survival time (%): versus vehicle group", "experimental": "as §2\nIn a GBM orthotopic xenograft study, female BALB/c nude mice were inoculated intracranially at 6–8 weeks old with 3×10^5 U87-luc tumor cells plus Matrigel (Corning Life Sciences, Tewksbury, MA, USA) in a 4:1 ratio in PBS at the right frontal lobe. Tumor growth was quantified using intraperitoneal administration of 150 mg/kg luciferin to anesthetized mice, and tumor bioluminescence was measured using an IVIS Lumina II imaging system (PerkinElmer Inc.). In one study, mice were randomized at day 6 after tumor implantation (mean bioluminescence of 2.81×10^7 photons/sec), and in the other, mice were randomized at day 14 or day 15 (mean bioluminescence of 7.49×10^6 photons/sec).\nStatistical analysis of differences in mean tumor volume among groups was conducted via an independent samples t-test or one-way analysis of variance (ANOVA; two-sided Dunnett’s test). For comparison among three or more groups, a one-way ANOVA was performed. Multiple comparison procedures were applied after ANOVA when significant F-statistics (ratio of treatment variance to error variance) were obtained. Comparisons between groups were carried out using the Games test. P<0.05 was considered to be statistically significant. Survival times were analyzed using the Kaplan–Meier method, with curves constructed for each group and the log-rank (Mantel–Cox) test used to compare survival curves between groups. Body weight change was calculated based on the weight on the first day of dosing."}, "[1]": {"conditions": "25 mg/kg daily oral, 21 days, measured day 21, 8 mice"}, "[2]": {"conditions": "25 mg/kg daily oral, 28 days, measured day 25, 10 mice"}},
  "data": [
    {"smiles": "CCN1CCN(Cc2ccc(Nc3ncc(F)c(-c4cc(F)c5nc(C)n(C(C)C)c5c4)n3)nc2)CC1", "note": "[Abemaciclib, abemaciclib, reference compound]", "values": [
      {"measurement": "IC50", "setting": "Colon-26; Mus musculus", "result": "> 10", "unit": "µM"},
      {"measurement": "IC50", "setting": "H22; Mus musculus", "result": 3.58, "unit": "µM"},
      {"measurement": "IC50", "setting": "Hepa1-6; Mus musculus", "result": 1.27, "unit": "µM"},
      {"measurement": "IC50", "setting": "Glioma 261; Mus musculus", "result": 2.52, "unit": "µM"},
      {"measurement": "IC50", "setting": "4T1; Mus musculus", "result": 4.79, "unit": "µM"},
      {"measurement": "IC50", "setting": "BNL CL.2; Mus musculus", "result": 10, "unit": "µM"},
      {"measurement": "TGI (%)", "setting": "MCF-7 tumor cells; [1]", "result": 33.0, "unit": "%"},
      {"measurement": "TGI (%)", "setting": "MCF-7 tumor cells; [2]", "result": 48.6, "unit": "%"},
      {"measurement": "TGI (%)", "setting": "NCI-H1975; 25 mg/kg daily oral", "result": 6.9, "unit": "%"},
      {"measurement": "IC50", "setting": "PC-9; Homo sapiens", "result": 0.457, "unit": "µM"},
      {"measurement": "IC50", "setting": "SNU-739; Homo sapiens", "result": 0.383, "unit": "µM"},
      {"measurement": "IC50", "setting": "SK-MES-1; Homo sapiens", "result": 0.148, "unit": "µM"},
      {"measurement": "IC50", "setting": "Du4475; Homo sapiens, DU-4475", "result": 10, "unit": "µM"},
      {"measurement": "IC50", "setting": "T98G; Homo sapiens", "result": 0.168, "unit": "µM"},
      {"measurement": "TGI (%)", "setting": "BN2289; 25 mg/kg daily oral", "result": 24.9, "unit": "%"},
      {"measurement": "TGI (%)", "setting": "U87-luc tumor cells; 150 mg/kg daily oral", "result": 79.0, "unit": "%"},
      {"measurement": "Increase in median survival time (%)", "setting": "U87-luc tumor cells; 150 mg/kg daily oral", "result": 54.4, "unit": "%"}
    ]},
    {"smiles": "CC1=Nc2c(F)cc(-c3nc(Nc4ccc(C5CCN(C)CC5)cn4)ncc3F)cc2C12CCCC2", "note": "[GLR2007]", "values": [
      {"measurement": "IC50", "setting": "Colon-26", "result": 2.12, "unit": "µM"},
      {"measurement": "IC50", "setting": "H22", "result": 1.84, "unit": "µM"},
      {"measurement": "IC50", "setting": "Hepa1-6", "result": 0.526, "unit": "µM"},
      {"measurement": "IC50", "setting": "Glioma 261", "result": 1.97, "unit": "µM"},
      {"measurement": "IC50", "setting": "4T1", "result": 1.94, "unit": "µM"},
      {"measurement": "IC50", "setting": "BNL CL.2", "result": 1.94, "unit": "µM"},
      {"measurement": "TGI (%)", "setting": "MCF-7 tumor cells; 10 mg/kg daily oral, 21 days, measured day 21, 8 mice", "result": 43.5, "unit": "%"},
      {"measurement": "TGI (%)", "setting": "MCF-7 tumor cells; [1]", "result": 37.4, "unit": "%"},
      {"measurement": "TGI (%)", "setting": "MCF-7 tumor cells; [2]", "result": 61.4, "unit": "%"},
      {"measurement": "TGI (%)", "setting": "MCF-7 tumor cells; 50 mg/kg daily oral, 21 days, measured day 21, 8 mice", "result": 49.6, "unit": "%"},
      {"measurement": "TGI (%)", "setting": "NCI-H1975; 10 mg/kg daily oral", "result": 27.6, "unit": "%"},
      {"measurement": "TGI (%)", "setting": "NCI-H1975; 25 mg/kg daily oral", "result": 50.0, "unit": "%"},
      {"measurement": "IC50", "setting": "PC-9", "result": 0.18, "unit": "µM"},
      {"measurement": "IC50", "setting": "SNU-739", "result": 0.1, "unit": "µM"},
      {"measurement": "IC50", "setting": "SK-MES-1", "result": 0.067, "unit": "µM"},
      {"measurement": "IC50", "setting": "Du4475", "result": 2.04, "unit": "µM"},
      {"measurement": "IC50", "setting": "T98G", "result": 0.11, "unit": "µM"},
      {"measurement": "TGI (%)", "setting": "BN2289; 5 mg/kg daily oral", "result": 4.9, "unit": "%"},
      {"measurement": "TGI (%)", "setting": "BN2289; 25 mg/kg daily oral", "result": 39.4, "unit": "%"},
      {"measurement": "TGI (%)", "setting": "BN2289; 50 mg/kg daily oral", "result": 56.4, "unit": "%"},
      {"measurement": "TGI (%)", "setting": "U87-luc tumor cells; 12.5 mg/kg daily oral", "result": 86.3, "unit": "%"},
      {"measurement": "Increase in median survival time (%)", "setting": "U87-luc tumor cells; 12.5 mg/kg daily oral", "result": 50.0, "unit": "%"},
      {"measurement": "Weight loss, GLR2007 versus abemaciclib groups", "setting": "U87-luc tumor cells; orthotopic U87-luc xenograft mice treated for 42 days", "result": "comparable"}
    ]}
  ]
}
